Assay [1] deals with T1, ERα (Homo sapiens, UniProt P03372).
T1 sequence (P03372 1-595): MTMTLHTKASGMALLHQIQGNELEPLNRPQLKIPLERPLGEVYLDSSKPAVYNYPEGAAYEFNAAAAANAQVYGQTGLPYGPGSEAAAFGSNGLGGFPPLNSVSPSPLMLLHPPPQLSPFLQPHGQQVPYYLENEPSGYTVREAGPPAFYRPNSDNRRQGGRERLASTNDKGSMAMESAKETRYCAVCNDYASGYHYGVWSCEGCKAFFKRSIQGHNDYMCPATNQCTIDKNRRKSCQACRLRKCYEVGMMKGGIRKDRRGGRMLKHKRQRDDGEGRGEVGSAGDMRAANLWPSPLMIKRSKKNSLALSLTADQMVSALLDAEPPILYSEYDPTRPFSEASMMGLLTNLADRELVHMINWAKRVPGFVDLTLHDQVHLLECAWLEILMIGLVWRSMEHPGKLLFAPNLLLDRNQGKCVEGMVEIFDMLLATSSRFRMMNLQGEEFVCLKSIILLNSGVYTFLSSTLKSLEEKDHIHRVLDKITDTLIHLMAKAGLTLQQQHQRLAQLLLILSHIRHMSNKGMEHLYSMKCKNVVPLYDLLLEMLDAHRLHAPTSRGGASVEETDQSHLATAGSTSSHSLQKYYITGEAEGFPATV
The assay is described as follows: ERE luciferase reporter gene assay in T47D-KBluc cells (target engagement). To be noted: 10% FBS, 24 hours, Table 3 cereblon centric PROTACs, read-out: ER-α Luciferase IC50. Also noted: T47D human breast cancer cells stably transfected with estrogen responsive element/promoter/luciferase reporter gene; host or cells: T47D-KBluc cells. It counts as cell-based. In a few lines:
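PROTACs were tested at 12 concentrations from 300 nM down to 2 pM in 3-fold steps for 24 h on T47D-KBluc cells with a stable ERE-driven luciferase. Medium was RPMI with 10% FBS, measured at 10 pM estrogen. IC50 came from luminescence after lysis, in duplicate.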

Assay [2] concerns the target T1, ERα. The assay is described as follows: Estrogen receptor-alpha (ERα) degradation assay in MCF7 cells using In-Cell Western assay. It is filed as cell-based. Also noted: assessed for their activity in degrading ERα in MCF-7 cells via western blot; endogenous in cells; host or cells: MCF7 cells. To be noted: ER-alpha degradation in MCF7 cells, 5 days of incubation. The procedure:
Estrogen Receptor-Alpha (ERα) Degradation Assay Using in-Cell Western™ Assay for Table 5.
Degradation of ERα by claimed compounds were determined in MCF7 cells using an In-Cell Western™ assay. Briefly, MCF7 cells were plated in 96-well plates (2000 cells per well in 100 μl media) and incubated at 37° C. under an atmosphere of 5% CO2 in a humidified incubator overnight. One-hundred (100) μI of media containing test compound (at 2x concentration) was added to the appropriate wells to provide 11 serially decreasing concentrations (top final concentration, 1 μM then 3-fold less for the next 10 concentrations); a vehicle control (DMSO) was also added for each compound. For each experiment, all compounds were assayed on duplicate plates. Cells were then incubated for 3 or 5 days in the above-mentioned environment. The assay was terminated by removal of media, a single wash with ice-cold PBS and the addition of 50 μl paraformaldehyde (PFA: 4% in PBS). After 15 minutes in PFA at room temperature, the cells were permeabilized in Tris-phosphate-buffered saline with Tween (0.1%) (TBST) supplemented with Triton X-100 (0.5%) for 15 minutes. Cells were then blocked in BSA (TBST with BSA, 3%) for one hour. Primary antibodies for the detection of ERa (rabbit monoclonal, 1:1000, Cell Signaling Technology Catalog #8644) and tubulin (mouse monoclonal, 1:5000, Sigma Catalog #T6074) in TBST with BSA (3%) were added. The cells were incubated overnight at 4° C. The cells were then washed thrice with TBST at room temperature and then incubated with anti-rabbit and anti-mouse fluorescently-labelled secondary antibodies (IRDye®; LI-COR; Lincoln, Nebr.) in LI-COR blocking buffer (Catalog #927-50000) for one hour at room temperature. Following 3 washes with TBST, the buffer was removed and the plates were read on an Odyssey® infrared imaging system (LI-COR®, Lincoln, Nebr.) at 700 nm and 800 nm. Using commercial software (ImageStudio™; LI-COR, Lincoln, Nebr.), the staining intensity for ERa and tubulin in each well was quantified and exported for analysis. For each data point, ERa intensity was normalized to tubulin intensity and for each compound all normalized intensity values were normalized to the vehicle control. DC50 and Dmax values were determined following a 4-parameter IC50 curve fit using ACAS dose response module (McNeil & Co Inc.).

Where only a bound is given, the exact number is not on record here.

For orientation: IC50 means the point on the concentration scale where inhibition reaches its midpoint. As a reminder, the DC50 is the midpoint of the concentration-degradation curve. What is called Dmax is the greatest extent of degradation seen. Higher therefore signals a fuller loss of target.

Regarding `O=C1CCC(N2Cc3cc(N4CCN(CCCCc5ccc(Oc6c(-c7ccc(Br)cc7)sc7cc(O)ccc67)cc5)CC4)ccc3C2=O)C(=O)N1` (centres unmarked) [Compound 215, 3-[5-[4-[4-[4-[2-(4-bromophenyl)-6-hydroxybenzothiophen-3-yl]oxyphenyl]butyl]piperazin-1-yl]-1-oxo-isoindolin-2-yl]piperidine-2,6-dione], at ERα [1], the IC50 worked out at 5.3 nM. Besides, on ERα [2], the DC50 lay within 1 to 10 nM and the Dmax was 50 to 75%.

Take `O=C1CCC(N2Cc3cc(N4CCC(CN5CC(c6ccc(Oc7c(-c8ccc(Br)cc8)sc8cc(O)ccc78)cc6)C5)CC4)ccc3C2=O)C(=O)N1` (centres unmarked) [Compound 216, 3-[5-[4-[[3-[4-[2-[4-bromophenyl)-6-hydroxy-benzothiophen-3-yl]oxyphenyl]azetidin-1-yl]methyl]-1-piperidyl]-1-oxo-isoindolin-2-yl]piperidine-2,6-dione]: at ERα [1], the IC50 is 2.7 nM. On ERα [2], this compound came in with a DC50 of 1 to 10 nM and a Dmax of 50 to 75%.

As to `O=C1CCC(N2Cc3cc(N4CCN(CCCOc5ccc(Oc6c(-c7ccc(OC(F)(F)F)cc7)sc7cc(O)ccc67)cc5)CC4)ccc3C2=O)C(=O)N1` (centres unmarked) [Compound 217, 3-[5-[4-[3-[4-[6-hydroxy-2-[4-(trifluoromethoxy)phenyl]benzothiophen-3-yl]oxyphenoxy]propyl]piperazin-1-yl]-1-oxo-isoindolin-2-yl]piperidine-2,6-dione], the IC50 at ERα [1] amounted to 7.5 nM. On ERα [2], this compound gave a DC50 of 1 to 10 nM and a Dmax of 50 to 75%.

In the case of `O=C1CCC(N2Cc3cc(N4CCN(CCCOc5ccc(Oc6c(-c7ccc(F)cc7)sc7cc(O)ccc67)cc5)CC4)ccc3C2=O)C(=O)N1` (centres unmarked) [Compound 220, 3-[5-[4-[3-[4-[2(4-fluorophenyl)-6-hydroxybenzothiophen-3-yl]oxyphenoxy]propyl]piperazin-1-yl]-1-oxo-isoindolin-2-yl]piperidine-2,6-dione], the IC50 at ERα [1] amounted to 1.5 nM. Moreover, on ERα [2], the DC50 lay within 1 to 10 nM and the Dmax lay in the range of 50 to 75%.

For `O=C1CCC(N2Cc3cc(N4CCN(CCCOc5ccc(Oc6c(-c7ccc(F)c(F)c7)sc7cc(O)ccc67)cc5)CC4)ccc3C2=O)C(=O)N1` (centres unmarked) [Compound 221, 3-[5-[4-[3-[4-[2-(3,4-difluorophenyl)-6-hydroxy-benzothiophen-3-yl]oxyphenoxy]propyl]piperazin-1-yl]-1-oxo-isoindolin-2-yl]piperidine-2,6-dione], the IC50 on ERα [1] was 2.4 nM. At ERα [2], the DC50 is 1 to 10 nM and the Dmax was in the range of 50 to 75%.

Take `O=C1CCC(N2C(=O)c3ccc(N4CCN([C@H]5C[C@H](Oc6ccc(Oc7c(-c8ccc(Br)cc8)sc8cc(O)ccc78)cc6)C5)CC4)cc3C2=O)C(=O)N1` (stereo partly drawn) [Compound 223, trans-5-[4-[3-[4-[2-(4-bromophenyl)-6-hydroxy-benzothiophen-3-yl]oxyphenoxy]cyclobutyl]piperazin-1-yl]-2-(2,6-dioxo-3-piperidyl)isoindoline-1,3-dione]: on ERα [1], the IC50 worked out at 41.1 nM. Besides, at ERα [2], the DC50 was 10 to 100 nM and the Dmax is greater than 75%.

For `O=C1CCC(N2Cc3cc(N4CCN(C5CC(Oc6ccc(Oc7c(-c8ccc(Br)cc8)sc8cc(O)ccc78)cc6)C5)CC4)ccc3C2=O)C(=O)N1` (centres unmarked) [Compound 224, 3-[5-[4-[3-[4-[2-(4-bromophenyl)-6-hydroxy-benzothiophen-3-yl]oxyphenoxy]cyclobutyl]piperazin-1-yl]-1-oxo-isoindolin-2-yl]piperidine-2,6-dione], the IC50 on ERα [1] is 7.7 nM. At ERα [2], this compound came in with a DC50 of 1 to 10 nM and a Dmax of 50 to 75%.

Regarding `O=C1CCC(N2C(=O)c3ccc(N4CCN(CCOCc5ccc(Oc6c(-c7ccc(Br)cc7)sc7cc(O)ccc67)cc5)CC4)cc3C2=O)C(=O)N1` (centres unmarked) [Compound 225, 5-[4-[2-[[4-[2-(4-bromophenyl)-6-hydroxy-benzothiophen-3-yl]oxyphenyl]methoxy]ethyl]piperazin-1-yl]-2-(2,6-dioxo-3-piperidyl)isoindoline-1,3-dione], at ERα [1], the IC50 turned out to be 4.8 nM. The compound further gave a Dmax at ERα [2] of less than 50%.

On to `O=C1CCC(N2Cc3cc(N4CCN(CC5CCN(c6ccc(Oc7c(-c8ccc(F)cc8)sc8cc(O)ccc78)cc6)CC5)CC4)ccc3C2=O)C(=O)N1` (centres unmarked) [Compound 226, 3-[5-[4-[[1-[4-[2-(4-fluorophenyl)-6-hydroxy-benzothiophen-3-yl]oxyphenyl]-4-piperidyl]methyl]piperazin-1-yl]-1-oxo-isoindolin-2-yl]piperidine-2,6-dione], for which the IC50 on ERα [1] amounted to 1.2 nM. On ERα [2], the DC50 is 1 to 10 nM and the Dmax is greater than 75%.

Take `O=C1CCC(N2C(=O)c3ccc(N4CCN(CC5CCN(c6ccc(Oc7c(-c8ccc(F)cc8)sc8cc(O)ccc78)cc6)CC5)CC4)cc3C2=O)C(=O)N1` (centres unmarked) [Compound 227, 2-(2,6-dioxo-3-piperidyl)-5-[4-[[1-[4-[2-(4-fluorophenyl)-6-hydroxy-benzothiophen-3-yl]oxyphenyl]-4-piperidyl]methyl]piperazin-1-yl]isoindoline-1,3-dione]: the IC50 on ERα [1] is 7 nM. At ERα [2], this compound gave a DC50 of 1 to 10 nM and a Dmax greater than 75%.

Take `O=C1CCC(N2C(=O)c3ccc(N4CCN(CC5CCN(c6ccc(Oc7c(-c8ccc(Br)cc8)sc8cc(O)ccc78)cc6)CC5)CC4)cc3C2=O)C(=O)N1` (centres unmarked) [Compound 228, 5-[4-[[1-[4-[2-(4-bromophenyl)-6-hydroxy-benzothiophen-3-yl]oxyphenyl]-4-pipendyl]methyl]piperazin-1-yl]-2-(2,6-dioxo-3-piperidyl)isoindoline-1,3-dione]: on ERα [1], the IC50 turned out to be 24.9 nM. At ERα [2], this compound yielded a DC50 of 1 to 10 nM and a maximal degradation (Dmax) greater than 75%.

As to `O=C1CCC(N2Cc3cc(N4CCN(CCC5CCN(c6ccc(Oc7c(-c8ccc(F)cc8)sc8cc(O)ccc78)cc6)CC5)CC4)ccc3C2=O)C(=O)N1` (centres unmarked) [Compound 229, 3-[5-[4-[2-[1-[4-[2-(4-fluorophenyl)-6-hydroxy-benzothiophen-3-yl]oxyphenyl]-4-piperidyl]ethyl]piperazin-1-yl]-1-oxo-isoindolin-2-yl]piperidine-2,6-dione], at ERα [1], the IC50 amounted to 1 nM. Besides, on ERα [2], the DC50 is 1 to 10 nM and the greatest degradation seen (Dmax) was greater than 75%.

As to `O=C1CCC(N2Cc3nc(N4CCN(CC5CCN(c6ccc(Oc7c(-c8ccc(F)cc8)sc8cc(O)ccc78)cc6)CC5)CC4)ccc3C2=O)C(=O)N1` (centres unmarked) [Compound 230, 3-[2-[4-[[1-[4-[2-(4-fluorophenyl)-6-hydroxy-benzothiophen-3-yl]oxyphenyl]-4-pipendyl]methyl]piperazin-1-yl]-5-oxo-7H-pyrrolo[3,4-b]pyridin-6-yl]piperidine-2,6-dione], on ERα [1], the IC50 was 1.1 nM. On ERα [2], this compound had a DC50 of 1 to 10 nM and a Dmax greater than 75%.

Consider `O=C1CCC(N2Cc3cc(N4CCN(CC5CCN(c6ccc(Oc7c(-c8ccc(Br)cc8)sc8cc(O)ccc78)cc6)CC5)CC4)ccc3C2=O)C(=O)N1` (centres unmarked) [Compound 231, 3-[5-[4-[[1-[4-[2-(4-bromophenyl)-6-hydroxy-benzothiophen-3-yl]oxyphenyl]-4-piperidyl]methyl]piperazin-1-yl]-1-oxo-isoindolin-2-yl]piperidine-2,6-dione], for which the IC50 at ERα [1] was 7.1 nM. Besides, at ERα [2], the DC50 lay within 1 to 10 nM and the Dmax was 50 to 75%.

(Values after patent US11384063B2, “Modulators of estrogen receptor proteolysis and associated methods of use” (Arvinas Operations, Inc., priority 2017, dated 2022).)
